We go through 3 compounds from patent US7439372B2, “Therapeutic compounds” (Allergan, Inc., priority 2006, dated 2008).

Each structure is given as a SMILES string. A value given as a limit tells only on which side of the number the result lay.

Data set [1] is described as follows: Intraocular pressure in dog. The settings on record: Conc. 0.1% (g/100 mL). It is filed as in vivo. An excerpt:
U.S. patent application Ser. No. 11/553,143, filed on Oct. 26, 2006, incorporated by reference herein, describes the methods used to obtain the in vitro data in the table below.

The next data set in a line: Ocular hyperemia in dog. The settings on record: Conc. 0.1% (g/100 mL). The format is in vivo.
A short description of data set [2]: Intraocular pressure in monkey. The format is in vivo. The following applies: Conc. 0.1% (g/100 mL).
Another data set addresses T1, EP4 receptors (Homo sapiens, UniProt P35408).
T1 construct: expressed in transfected cells; host or cells: HEK-293
The experiment in a line: Radioligand binding, [3H]PGE2, HEK-293 cells stably expressing EP4 receptors. The following applies: [3H]PGE2 competition. As for the experimental part:
(§1) HEK-293 cells stably expressing the human or feline FP receptor, or EP1, EP2, or EP4 receptors were washed with TME buffer, scraped from the bottom of the flasks, and homogenized for 30 sec using a Brinkman PT 10/35 polytron. TME buffer was added to achieve a final 40 ml volume in the centrifuge tubes (the composition of TME is 100 mM TRIS base, 20 mM MgCl2, […]; 10N HCl is added to achieve a pH of 7.4).
(§2) The cell homogenate was centrifuged at 19000 r.p.m. for 20 min at 4° C. using a Beckman Ti-60 rotor. The resultant pellet was resuspended in TME buffer to give a final 1 mg/ml protein concentration, as determined by Biorad assay. Radioligand binding competition assays vs. [^3H-]17-phenyl PGF2α (5 nM) were performed in a 100 μl volume for 60 min. Binding reactions were started by adding plasma membrane fraction. The reaction was terminated by the addition of 4 ml ice-cold TRIS-HCl buffer and rapid filtration through glass fiber GF/B filters using a Brandel cell harvester. The filters were washed 3 times with ice-cold buffer and oven dried for one hour.
(§3) [^3H-]PGE2 (specific activity 180 Ci mmol) was used as the radioligand for EP receptors. [^3H]17-phenyl PGF2α was employed for FP receptor binding studies. Binding studies employing EP1, EP2, EP4 and FP receptors were performed in duplicate in at least three separate experiments. A 200 μl assay volume was used. Incubations were for 60 min at 25° C. and were terminated by the addition of 4 ml of ice-cold 50 mM TRIS-HCl, followed by rapid filtration through Whatman GF/B filters and three additional 4 ml washes in a cell harvester (Brandel). Competition studies were performed using a final concentration of 5 nM [^3H]-PGE2, or 5 nM [^3H] 17-phenyl PGF2α and non-specific binding determined with 10^−5M of unlabeled PGE2, or 17-phenyl PGF2α, according to receptor subtype studied.

The target of the next data set is T2, hEP4/Gqs5 (Homo sapiens, UniProt P35408).
T2 construct: expressed in transfected cells; host or cells: HEK-293(EBNA)
T2 sequence (P35408 whole entry): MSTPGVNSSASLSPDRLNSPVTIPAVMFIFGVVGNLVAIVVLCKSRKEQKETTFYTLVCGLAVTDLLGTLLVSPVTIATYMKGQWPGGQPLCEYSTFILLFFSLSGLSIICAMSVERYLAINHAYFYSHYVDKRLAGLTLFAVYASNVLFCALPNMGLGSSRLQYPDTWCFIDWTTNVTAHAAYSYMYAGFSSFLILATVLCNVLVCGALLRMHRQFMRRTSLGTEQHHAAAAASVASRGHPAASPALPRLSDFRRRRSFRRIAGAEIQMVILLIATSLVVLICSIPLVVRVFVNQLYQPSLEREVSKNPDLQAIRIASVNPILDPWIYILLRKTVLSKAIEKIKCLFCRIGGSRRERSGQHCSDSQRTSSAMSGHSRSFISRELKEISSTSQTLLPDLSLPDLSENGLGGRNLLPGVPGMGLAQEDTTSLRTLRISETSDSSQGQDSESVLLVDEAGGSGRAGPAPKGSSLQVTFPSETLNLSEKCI
The experiment in a line: FLIPR calcium signal, HEK-293(EBNA) cells expressing hEP4/Gqs5. The format is cell-based. The method, then:
HEK-293(EBNA) cells, stably expressing one type or subtype of recombinant human prostaglandin receptors (prostaglandin receptors expressed: hDP/Gqs5; hEP1; hEP2/Gqs5; hEP3A/Gqi5; hEP4/Gqs5; hFP; hIP; hTP), were cultured in 100 mm culture dishes in high-glucose DMEM medium containing 10% fetal bovine serum, 2 mM l-glutamine, 250 µg/ml geneticin (G418) and 200 μg/ml hygromycin B as selection markers, and 100 units/ml penicillin G, 100 µg/ml streptomycin and 0.25 μg/ml amphotericin B.
Cells were seeded at a density of 5×10^4 cells per well in Biocoat® Poly-D-lysine-coated black-wall, clear-bottom 96-well plates (Becton-Dickinson) and allowed to attach overnight in an incubator at 37° C. Cells were then washed two times with HBSS-HEPES buffer (Hanks Balanced Salt Solution without bicarbonate and phenol red, 20 mM HEPES, pH 7.4) using a Denley Cellwash plate washer (Labsystems). After 45 minutes of dye-loading in the dark, using the calcium-sensitive dye Fluo-4 […] at a final concentration of 2 μM, plates were washed four times with HBSS-HEPES buffer to remove excess dye leaving 100 μl in each well. Plates were re-equilibrated to 37° C. for a few minutes.
Cells were excited with an Argon laser at 488 nm, and emission was measured through a 510-570 nm bandwidth emission filter (FLIPR™, Molecular Devices, Sunnyvale, Calif.). Drug solution was added in a 50 µl volume to each well to give the desired final concentration. The peak increase in fluorescence intensity was recorded for each well. On each plate, four wells each served as negative (HBSS-HEPES buffer) and positive controls (standard agonists: BW245C (hDP); PGE2 (hEP1; hEP2/Gqs5; hEP3A/Gqi5; hEP4/Gqs5); PGF2α (hFP); carbacyclin (hIP); U-46619 (hTP), depending on receptor). The peak fluorescence change in each drug-containing well was then expressed relative to the controls.
Compounds were tested in a high-throughput (HTS) or concentration-response (CoRe) format. In the HTS format, forty-four compounds per plate were examined in duplicates at a concentration of 10^−5 M. To generate concentration-response curves, four compounds per plate were tested in duplicates in a concentration range between 10^−5 and 10^−11 M. The duplicate values were averaged. In either, HTS or CoRe format each compound was tested on at least 3 separate plates using cells from different passages to give an n≧3.

In a further data set the target is EP2 (Homo sapiens, UniProt P43116). Briefly: Competition binding, [3H]PGE2, HEK 293 cells stably expressing human EP2 receptors. Also noted: expressed in transfected cells; host or cells: HEK 293. The following applies: [3H]PGE2 competition. The method, then:
Competition binding experiments were performed in a medium containing Hank's balanced salt solution, Hepes 20 mM, pH 7.3, membranes (˜60 μg protein) or 2×10^5 cells from HEK 293 cells stably expressing human EP2 receptors, [^3H]PGE2 (10 nM) and various concentrations of test compounds in a total volume of 300 μl. Reaction mixtures were incubated at 23° C. for 60 min, and were filtered over Whatman GF/B filters under vacuum. Filters were washed three times with 5 ml ice-cold buffer containing 50 mM Tris/HCl (pH 7.3). Non-specific binding was estimated in the presence of excess unlabeled PGE2 (10 μM). Binding data fitted to the binding model for a single class of binding sites, using nonlinear regression analysis. IC50 values thus obtained were converted to Ki using the equation of Ki=(IC50/(1+[L]/KD) where [L] represents PGE2 concentration (10 nM) and KD the dissociation constant for [3H]PGE2 at human EP2 receptors (40 nM).
as §1, §2, §3

EP2, sequence (P43116 whole entry): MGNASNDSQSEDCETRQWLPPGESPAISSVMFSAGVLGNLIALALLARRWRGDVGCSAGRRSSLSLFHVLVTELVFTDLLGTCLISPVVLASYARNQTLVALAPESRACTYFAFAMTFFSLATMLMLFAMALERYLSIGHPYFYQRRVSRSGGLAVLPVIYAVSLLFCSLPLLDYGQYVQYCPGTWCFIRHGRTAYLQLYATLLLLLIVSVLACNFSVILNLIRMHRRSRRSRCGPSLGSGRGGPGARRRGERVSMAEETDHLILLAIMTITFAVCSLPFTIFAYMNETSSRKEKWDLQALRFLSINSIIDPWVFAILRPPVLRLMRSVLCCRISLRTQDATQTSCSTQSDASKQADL
T1 sequence (P35408 whole entry): as the sequence (P35408 whole entry) above

As to `CCCCCC(O)c1ccc([C@@H]2[C@@H](CCCc3ccc(C(=O)OC(C)C)s3)CCC2(Cl)Cl)cc1` (some centres unmarked) [compound 2], the “DOG Max. ΔIOP (%)” value in data set [1] is given as −6%. In addition, the “DOG Max. hyperemia” value in the data set “Ocular hyperemia in dog” turned out to be 0.4. In data set [2], the “MONKEY Max. ΔIOP (%)” value is reported as −21%.

With `CCCCCC(O)c1ccc([C@H]2C(=O)C=C[C@@H]2C/C=C\CCCC(=O)O)cc1` (some centres unmarked) [compound 4], the Ki (as a rule, the dissociation constant of the complex between target and ligand, obtained from inhibition or displacement) on EP4 receptors is 4330 nM; at EP2 it was over 10000 nM. The “Ca2+ Signal-EC50(nM) EP4” value on hEP4/Gqs5 is “notactive”.

`CCCCCC(O)c1ccc([C@H]2C(=O)CC[C@@H]2CCCc2ccc(C(=O)OC(C)C)s2)cc1` (some centres unmarked) [compound 1]: the “DOG Max. ΔIOP (%)” value in data set [1] is recorded as −37%. In addition, the “DOG Max. hyperemia” value in the data set “Ocular hyperemia in dog” is on record as 1.6.
